The IC50 is the concentration that inhibits the measured activity by half.

Molecules are shown by their SMILES. Calls of active or inactive are those of the source. No rule for the calls is given here.

This assay has as its target SARS coronavirus 3C-like protease (3CLpro). As to the kind of experiment: SARS 3CLpro protease inhibitor potency, late-stage follow-up, biochemical, fluorescence, dose response, set 4 (AID 588786). Particulars: recombinant 3CLpro, fluorogenic peptide cleavage.
With `COc1cccc(Oc2ccc(N(C(=O)c3ccco3)C(C(=O)NC(C)(C)C)c3cccnc3)cc2)c1` (stereo not given), the IC50 entry was “inactive”.
With `CC(C)(C)NC(=O)C(c1cccnc1)N(C(=O)c1ccco1)c1ccc(-c2cccnc2)cc1` (stereo not given) the entry was “inactive”; with `CC(C)(C)c1ccc(N(Cc2cccnc2)C(=O)c2cnc[nH]2)cc1`, “inactive”.
Turning to `Cc1noc(C)c1-c1ccc(N(C(=O)c2ccco2)C(C(=O)NC(C)(C)C)c2cccnc2)cc1` (stereo not given), the IC50 result is “inactive”.
With `CC(C)(C)NC(=O)C(c1cccnc1)N(C(=O)c1ccco1)c1ccc(-c2cccn2C(=O)OC(C)(C)C)cc1` (stereo not given) the entry was “inactive”.
With `CC(C)(C)NC(=O)C(c1cccnc1)N(C(=O)c1ccco1)c1ccc(-c2ccccc2)cc1` (stereo not given) the figure was 2.3 µM; with `CC(C)(C)NC(=O)C(c1cccnc1)N(C(=O)c1ccco1)c1ccc(I)cc1` (stereo not given), “inactive”; with `CC(C)(C)NC(=O)C(c1cccnc1)N(C(=O)c1ccco1)c1ccc(-c2cncnc2)cc1` (stereo not given), 4.5 µM.
With `CC(C)(C)NC(=O)C(c1cccnc1)N(C(=O)c1ccco1)c1ccc(-c2cccc(F)c2F)cc1` (stereo not given) the figure was 3.2 µM; with `CC(C)(C)NC(=O)C(c1cccnc1)N(C(=O)c1ccco1)c1ccc(OCc2ccccc2)cc1` (stereo not given), “inactive”.

For the origin of these results see PubChem BioAssay AID588786 (The Scripps Research Institute Molecular Screening Center, 2011).
